Assay [1] relates to Huh-7 cells, sub-genomic genotype 1a HCV replicon H/SG-Neo. Briefly: Inhibition of HCV replication in cell culture, genotype 1a replicon. To be noted: for EC50: Huh-7, genotype 1a replicon, intracellular HCV RNA 24 h after 3 daily doses; for Selectivity Index (CC50/EC50): genotype 1a replicon, CC50 by neutral red uptake. Type of assay: cell-based, hepatitis C virus. The method, then:
(§1) Test compounds were solubilized at 30 mM in 100% tissue culture grade DMSO (Sigma, Inc.). Aliquots of test compounds sufficient for one daily treatment were made in individual tubes and all material was stored at −20° C. On each day of treatment, daily aliquots of the test compounds were suspended in culture medium at room temperature and immediately added to the cell cultures. Compounds were added to dividing cultures once daily for three days at concentrations ranging from about 30 μM to about 0.0003 μM. Media was changed with each addition of compound. The assays were started when cell cultures were at about 30-50% confluence, and the cells reached confluence during the last day of treatment. The assays included untreated control cultures (six total), and triplicate cultures treated with α-interferon and ribavirin as positive antiviral and toxicity controls.
(§2) Intracellular HCV RNA levels and cytotoxicity were assessed in triplicate 24 hours after the last compound dose.

In a further assay the target is HCV RdRp (NS5B) (UniProt P26663). It is filed as biochemical, hepatitis C virus.
Assay [2] deals with Huh-7 cells, genotype 1b HCV replicon. Briefly: Inhibition of HCV replication in cell culture, genotype 1b replicon. To be noted: for EC50: Huh-7, genotype 1b replicon, intracellular HCV RNA 24 h after 3 daily doses; for Selectivity Index (CC50/EC50): genotype 1b replicon, CC50 by neutral red uptake. Type of assay: cell-based, hepatitis C virus. The method, then: as §1, §2
The target of assay [3] is T1, NS5B (Replizyme, UK), HCV genotype 1b Δ21 RdRp (UniProt P26663).
T1 construct: other: Replizyme enzyme
Type of assay: biochemical, hepatitis C virus. To be noted: Replizyme enzyme; read-out: Experimental IC50, Replizyme. As for the experimental part:
An RNA-dependant RNA polymerase assay was performed in a 96-well round bottom polypropylene plates (Costar) with a 50 μl reaction volume containing 20 mM HEPES pH 7.2-7.5 (Gibco), 1 mM DTT (Sigma), 0.4 mM MnCl2 (Sigma), 70 nM RNA template-primer PolyA (Amersham)-Oligo dT(20) biotin labelled (Roche), 20 μM UTP (Roche), 5U RNasin (Promega), 50 mM NaCl (Ambion), 4 μM DIG-11-UTP (Roche), test compound at desired concentration, 5% DMSO and 50-80 ng NS5B (Replizyme(V, UK) or 200-500 ng of recombinant NS5BA21 HCV RdRp enzyme. After 1 hour incubation at 30° C, the reaction is stopped by the addition of 5 μl 0.5 M EDTA and the solution is transferred to a streptavidin coated 96 well plate (Roche). Standard ELISA detection using Anti DIG-POD antibody (Roche) and BM Blue substrate is applied before measuring Abs at 450 nm. An illustration of the assay can be found in FIG. 1.

Setting [4] is: Hepatitis C virus, Huh-7, 24 h, read-out: EC50.

Like-named read-outs stand apart in the source and are kept apart here. Bounds are passed on as bounds.

Chain of HCV RdRp (NS5B) (P26663 whole entry, looked up): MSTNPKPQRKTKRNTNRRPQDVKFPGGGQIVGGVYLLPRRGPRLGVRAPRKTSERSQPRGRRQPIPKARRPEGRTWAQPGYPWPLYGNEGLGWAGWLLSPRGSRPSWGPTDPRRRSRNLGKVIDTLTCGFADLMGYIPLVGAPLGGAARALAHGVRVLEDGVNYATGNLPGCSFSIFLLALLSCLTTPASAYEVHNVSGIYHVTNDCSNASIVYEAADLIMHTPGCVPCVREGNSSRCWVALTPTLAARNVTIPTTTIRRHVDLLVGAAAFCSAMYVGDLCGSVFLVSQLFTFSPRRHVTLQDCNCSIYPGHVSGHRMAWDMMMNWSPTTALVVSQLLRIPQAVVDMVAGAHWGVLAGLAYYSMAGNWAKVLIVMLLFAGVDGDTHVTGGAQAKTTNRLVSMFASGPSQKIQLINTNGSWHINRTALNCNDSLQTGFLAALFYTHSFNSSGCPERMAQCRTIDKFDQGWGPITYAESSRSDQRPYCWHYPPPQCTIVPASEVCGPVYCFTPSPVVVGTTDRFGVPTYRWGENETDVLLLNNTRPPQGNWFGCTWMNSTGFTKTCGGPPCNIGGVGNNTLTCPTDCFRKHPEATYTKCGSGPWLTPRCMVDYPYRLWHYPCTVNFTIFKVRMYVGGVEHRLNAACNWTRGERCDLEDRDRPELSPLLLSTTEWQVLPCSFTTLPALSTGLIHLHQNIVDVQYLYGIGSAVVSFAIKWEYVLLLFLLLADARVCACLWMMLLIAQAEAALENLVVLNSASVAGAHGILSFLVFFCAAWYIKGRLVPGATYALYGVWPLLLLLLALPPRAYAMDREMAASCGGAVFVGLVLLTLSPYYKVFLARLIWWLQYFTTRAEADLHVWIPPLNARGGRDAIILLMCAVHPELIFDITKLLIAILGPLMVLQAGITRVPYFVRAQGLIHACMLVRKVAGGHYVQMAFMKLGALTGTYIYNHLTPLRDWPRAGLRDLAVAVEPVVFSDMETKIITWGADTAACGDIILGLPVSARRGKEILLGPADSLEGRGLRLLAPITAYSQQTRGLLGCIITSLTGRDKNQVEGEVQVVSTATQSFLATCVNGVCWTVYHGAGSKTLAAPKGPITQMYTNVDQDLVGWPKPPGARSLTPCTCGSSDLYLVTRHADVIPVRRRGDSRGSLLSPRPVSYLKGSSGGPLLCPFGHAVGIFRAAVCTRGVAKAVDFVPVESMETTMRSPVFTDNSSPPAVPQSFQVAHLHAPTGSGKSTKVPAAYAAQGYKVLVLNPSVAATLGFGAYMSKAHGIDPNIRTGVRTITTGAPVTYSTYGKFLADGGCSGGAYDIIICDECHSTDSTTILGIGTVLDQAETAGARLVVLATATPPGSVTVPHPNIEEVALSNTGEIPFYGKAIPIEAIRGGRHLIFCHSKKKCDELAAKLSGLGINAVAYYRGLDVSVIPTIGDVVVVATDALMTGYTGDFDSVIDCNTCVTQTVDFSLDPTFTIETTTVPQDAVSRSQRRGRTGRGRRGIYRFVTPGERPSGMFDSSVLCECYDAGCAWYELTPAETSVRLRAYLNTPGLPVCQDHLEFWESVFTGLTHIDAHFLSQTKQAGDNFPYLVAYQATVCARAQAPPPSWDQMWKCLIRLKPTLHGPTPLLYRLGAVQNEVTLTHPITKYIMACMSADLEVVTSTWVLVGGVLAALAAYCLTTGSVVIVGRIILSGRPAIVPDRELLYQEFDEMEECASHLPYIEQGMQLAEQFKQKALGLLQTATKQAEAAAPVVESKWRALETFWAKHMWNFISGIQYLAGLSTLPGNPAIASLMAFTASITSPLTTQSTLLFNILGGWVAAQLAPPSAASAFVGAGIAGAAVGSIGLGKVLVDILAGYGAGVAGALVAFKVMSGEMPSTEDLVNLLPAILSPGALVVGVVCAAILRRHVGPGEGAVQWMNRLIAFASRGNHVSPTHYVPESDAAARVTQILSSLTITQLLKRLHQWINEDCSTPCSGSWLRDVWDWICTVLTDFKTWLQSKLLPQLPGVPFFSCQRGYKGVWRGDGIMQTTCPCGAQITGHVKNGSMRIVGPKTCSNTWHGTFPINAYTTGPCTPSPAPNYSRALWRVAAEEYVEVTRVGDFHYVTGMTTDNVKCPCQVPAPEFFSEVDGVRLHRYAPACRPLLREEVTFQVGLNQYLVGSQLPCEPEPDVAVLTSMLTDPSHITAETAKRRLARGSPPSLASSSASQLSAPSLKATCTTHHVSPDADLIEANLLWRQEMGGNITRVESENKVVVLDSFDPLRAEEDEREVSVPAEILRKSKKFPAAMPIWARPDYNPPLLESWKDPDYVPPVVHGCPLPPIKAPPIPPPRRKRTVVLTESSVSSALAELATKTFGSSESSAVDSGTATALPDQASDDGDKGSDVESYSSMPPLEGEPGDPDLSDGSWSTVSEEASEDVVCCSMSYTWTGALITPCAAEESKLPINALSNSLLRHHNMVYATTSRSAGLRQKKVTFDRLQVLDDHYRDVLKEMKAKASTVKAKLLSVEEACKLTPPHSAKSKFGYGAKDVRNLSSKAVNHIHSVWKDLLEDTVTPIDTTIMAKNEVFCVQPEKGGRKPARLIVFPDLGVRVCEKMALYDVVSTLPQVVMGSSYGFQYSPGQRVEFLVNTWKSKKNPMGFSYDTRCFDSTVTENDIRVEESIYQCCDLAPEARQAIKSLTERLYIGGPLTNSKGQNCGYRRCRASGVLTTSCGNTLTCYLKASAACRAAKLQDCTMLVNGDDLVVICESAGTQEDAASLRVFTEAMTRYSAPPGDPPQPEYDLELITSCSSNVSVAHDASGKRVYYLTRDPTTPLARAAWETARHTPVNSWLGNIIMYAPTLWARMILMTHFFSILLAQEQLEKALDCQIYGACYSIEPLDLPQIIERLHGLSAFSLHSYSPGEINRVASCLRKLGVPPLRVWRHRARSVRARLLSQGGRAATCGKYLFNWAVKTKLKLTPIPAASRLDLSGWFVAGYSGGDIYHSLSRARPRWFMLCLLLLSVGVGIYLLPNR

With `Cc1ccc(NC(=O)[C@H](CCCCN)NC(=O)Nc2ccc(OCc3ccccc3)cc2)cc1` [Compound 2, (S)-6-AMINO-2-[3-(4-BENZYLOXY-PHENYL)-UREIDO]-HEXANOIC ACID P-TOLYLAMIDE], the 50% effective concentration (EC50) in assay [1] (Hepatitis C virus) and in assay [2] (setting [4]) was below 0.5 µM each time. Also, the “Selectivity Index (CC50/EC50)” value in assay [1] is on record as 20 to 100; in assay [2], above 100. The compound also returned a half-maximal inhibitory concentration (IC50) against HCV RdRp (NS5B) of 10 to 50 µM.
Take `Cc1ccc(NC(=O)[C@H](CCCCN)NCc2ccc(NC(=O)Nc3ccncc3)cc2)cc1` [Compound 262, (S)-6-AMINO-2-[4-(3-PYRIDIN-4-YL-UREIDO)-BENZYLAMINO]-HEXANOIC ACID P-TOLYLAMIDE]: the concentration for a half-maximal effect (EC50) was below 0.5 µM in assay [1] and 2 to 0.5 μM in assay [2]. The same compound had a half-maximal inhibitory concentration (IC50) at HCV RdRp (NS5B) below 10 µM.
Regarding `O=c1ccn([C@@H]2O[C@H](COP(=O)(O)OP(=O)(O)OP(=O)(O)O)C[C@H]2O)c(=O)[nH]1` [3′-dUTP], the IC50 in assay [3] amounted to 0.13 µM.
Turning to `Cc1cc2cc(NC(=O)[C@H](CCCNC(=O)CN)NC(=O)Nc3ccc4c(c3)Cc3ccccc3-4)ccc2[nH]1` [Compound 297, (S)-5-(2-AMINO-ACETYLAMINO)-2-[3-(9H-FLUOREN-2-YL)-UREIDO]-PENTANOIC ACID (2-METHYL-1H-INDOL-5-YL)-AMIDE], the EC50 in assay [1] (Hepatitis C virus) and in assay [2] (setting [4]) was below 0.5 µM each time. In addition, the “Selectivity Index (CC50/EC50)” value in assay [1] and in assay [2] was above 100 each time. Further, the half-inhibitory concentration (IC50) against HCV RdRp (NS5B) is below 10 µM.
Compound `O=C(CC1CNCCN1C(=O)Nc1ccc(OCc2ccccc2)cc1)Nc1ccc(C2CCCCC2)cc1` (stereo not drawn) [Compound 163, 2-[(4-CYCLOHEXYL-PHENYLCARBAMOYL)-METHYL]-PIPERAZINE-1-CARBOXYLIC ACID (4-BENZYLOXY-PHENYL)-AMIDE] gave an IC50 on HCV RdRp (NS5B) of 10 to 50 µM. Also, the EC50 in assay [2] (setting [4]) was below 0.5 µM. The “Selectivity Index (CC50/EC50)” value in assay [2] was below 20.
`CC1CCC(NC(=O)[C@H](CCCCN)NC(=O)Nc2ccc(OCc3ccccc3)cc2)CC1` (stereo partly drawn) [Compound 264, (S)-6-AMINO-2-[3-(4-BENZYLOXY-PHENYL)-UREIDO]-HEXANOIC ACID (4-METHYL-CYCLOHEXYL)-AMIDE] registered a concentration for half-maximal inhibition (IC50) on HCV RdRp (NS5B) of 10 to 50 µM. Also, in assay [2] (setting [4]), the EC50 was below 0.5 µM. Further, in assay [2], the “Selectivity Index (CC50/EC50)” value was above 100.
On HCV RdRp (NS5B), `Cc1cc2cc(NC(=O)[C@H](CCNC(=O)CN)NC(=O)Nc3ccc4c(c3)Cc3ccccc3-4)ccc2[nH]1` [Compound 240, (S)-4-(2-AMINO-ACETYLAMINO)-2-[3-(9H-FLUOREN-2-YL)-UREIDO]-N-(2-METHYL-1H-INDOL-5-YL)-BUTYRAMIDE] came in with a half-inhibitory concentration (IC50) of 10 to 50 µM. Further, in assay [2] (setting [4]), the EC50 was above 2 µM. Also, the “Selectivity Index (CC50/EC50)” value in assay [2] is recorded as below 20.
At HCV RdRp (NS5B), `Cc1ccc(NC(=O)C[C@H](CCCCN)NC(=O)Nc2ccc(OCc3ccccc3)cc2)cc1` [Compound 246, (S)-7-AMINO-3-[3-(4-BENZYLOXY-PHENYL)-UREIDO]-HEPTANOIC ACID P-TOLYLAMIDE] registered a half-inhibitory concentration (IC50) of 10 to 50 µM. Further, the concentration for a half-maximal effect (EC50) in assay [2] (setting [4]) is above 2 µM. Moreover, the “Selectivity Index (CC50/EC50)” value in assay [2] is reported as below 20.
Regarding `NCCCC[C@@H](NC(=O)Nc1ccc(OCc2ccccc2)cc1)C(=O)Nc1ccc(C2CCCCC2)cc1` [Compound 166, (R)-6-AMINO-2-[3-(4-BENZYLOXY-PHENYL)-UREIDO]-HEXANOIC ACID (4-CYCLOHEXYL-PHENYL)-AMIDE], the 50% inhibitory concentration (IC50) against HCV RdRp (NS5B) is below 10 µM. Besides, the half-maximal effective concentration (EC50) in assay [2] (setting [4]) was above 2 µM. The “Selectivity Index (CC50/EC50)” value in assay [2] is below 20.
The like results for `Cc1ccc(NC(=O)[C@H](CCCCN)NC(=O)CNc2cccc(Oc3ccccc3)c2)cc1` [Compound 367, (S)-6-AMINO-2-[2-(3-PHENOXY-PHENYLAMINO)-ACETYLAMINO]-HEXANOIC ACID P-TOLYLAMIDE] were, in that order, below 10 µM, above 2 µM and below 20.
The like results for `Cc1ccc(NC(=O)C(CNC(=O)CN)NC(=O)Nc2ccc(OCc3ccccc3)cc2)cc1` [Compound 268, (S)-3-(2-AMINO-ACETYLAMINO)-2-[3-(4-BENZYLOXY-PHENYL)-UREIDO]-N-P-TOLYL-PROPIONAMIDE] were, in that order, 10 to 50 µM, above 2 µM and below 20.
Turning to `Cc1ccc(NC(=O)[C@@H](CCCCN)NC(=O)Nc2ccc(OCc3ccccc3)cc2)cc1` [Compound 172, (R)-6-AMINO-2-[3-(4-BENZYLOXY-PHENYL)-UREIDO]-HEXANOIC ACID P-TOLYLAMIDE], the half-maximal effective concentration (EC50) in assay [1] (Hepatitis C virus) was below 0.5 µM; in assay [2] (setting [4]), 0.5 to 2 µM. The results for the “Selectivity Index (CC50/EC50)” value in assay [1] and in assay [2] were 20 to 100 and below 20, respectively. The 50% inhibitory concentration (IC50) against HCV RdRp (NS5B) lay within 10 to 50 µM.
`Cc1ccc(NC(=O)[C@H](CCCCN)NC(=O)Nc2ccc3c(c2)Cc2ccccc2-3)cc1` [Compound 125, (S)-6-AMINO-2-[3-(9H-FLUOREN-2-YL)-UREIDO]-HEXANOIC ACID P-TOLYLAMIDE] registered an IC50 against HCV RdRp (NS5B) below 10 µM. For the same compound, in assay [2] (read-out: EC50), the 50% effective concentration (EC50) was above 2 µM. The “Selectivity Index (CC50/EC50)” value in assay [2] was below 20.
At HCV RdRp (NS5B), `NCCCC[C@@H](NC(=O)Nc1ccc(-c2ccccc2)cc1)C(=O)Nc1ccc(C2CCCCC2)cc1` [Compound 142, (R)-6-AMINO-2-(3-BIPHENYL-4-YL-UREIDO)-HEXANOIC ACID (4-CYCLOHEXYL-PHENYL)-AMIDE] returned a half-maximal inhibitory concentration (IC50) below 10 µM. The EC50 in assay [2] (setting [4]) is below 0.5 µM. Moreover, the “Selectivity Index (CC50/EC50)” value in assay [2] is below 20.
The like results for `Cc1ccc(NC(=O)[C@H](CCCCN)NC(=O)CNc2ccc(Oc3ccccc3)cc2)cc1` [Compound 368, (S)-6-AMINO-2-[2-(4-PHENOXY-PHENYLAMINO)-ACETYLAMINO]-HEXANOIC ACID P-TOLYLAMIDE] were, in that order, below 10 µM, 0.5 to 2 µM and below 20.
`NCCCCC[C@H](NC(=O)NCc1ccccc1)C(=O)Nc1ccc(C2CCCCC2)cc1` [Compound 120, (S)-7-AMINO-2-(3-BENZYL-UREIDO)-HEPTANOIC ACID (4-CYCLOHEXYL-PHENYL)-AMIDE] gave a half-maximal inhibitory concentration (IC50) at HCV RdRp (NS5B) below 10 µM. In assay [2] (setting [4]), the EC50 was above 2 µM. Moreover, the “Selectivity Index (CC50/EC50)” value in assay [2] is reported as below 20.
In turn, `Cc1ccc(NC(=O)C(CCCCN)NC(=O)Nc2nnc(COc3ccc(C)cc3)s2)cc1` [Compound 272, (S)-6-AMINO-2-[3-(5-P-TOLYLOXYMETHYL-[1,3,4] THIADIAZOL-2-YL)-UREIDO]-HEXANOIC ACID P-TOLYLAMIDE] registered a half-inhibitory concentration (IC50) at HCV RdRp (NS5B) of 10 to 50 µM. The EC50 in assay [2] (setting [4]) was 0.5 to 2 µM. Moreover, the “Selectivity Index (CC50/EC50)” value in assay [2] was 20 to 100.
The corresponding values for `Cc1ccc(NC(=O)C(CCCCN)NC(=O)Nc2ccc(-c3nc4ccccc4o3)cc2)cc1` [Compound 270, (S)-6-AMINO-2-[3-(4-BENZOOXAZOL-2-YL-PHENYL)-UREIDO]-HEXANOIC ACID P-TOLYLAMIDE] are 10 to 50 µM, above 2 µM and below 20.
The corresponding values for `Cc1cc2cc(NC(=O)[C@H](CCCCN)NC(=O)Nc3ccc(-c4ccccc4)cc3)ccc2[nH]1` [Compound 94, (S)-6-AMINO-2-(3-BIPHENYL-4-YL-UREIDO)-HEXANOIC ACID (2-METHYL-1H-INDOL-5-YL)-AMIDE] are below 10 µM, above 2 µM and below 20.
Take `Cc1cc2cc(NC(=O)[C@H](CCCCN)NC(=O)Nc3ccc(OCc4ccccc4)cc3)ccc2[nH]1` [Compound 206, (S)-6-AMINO-2-[3-(4-BENZYLOXY-PHENYL)-UREIDO]-HEXANOIC ACID (2-METHYL-1H-INDOL-5-YL)-AMIDE]: the EC50 in assay [1] (Hepatitis C virus) and in assay [2] (setting [4]) was above 2 µM throughout. The “Selectivity Index (CC50/EC50)” value in assay [1] and in assay [2] was below 20 each time. On HCV RdRp (NS5B), the IC50 lay in the range of 10 to 50 µM.
At HCV RdRp (NS5B), `NCCCC[C@H](NC(=O)Nc1ccc(-c2ccccc2)cc1)C(=O)Nc1ccc(C2CCCCC2)cc1` [Compound 119, (S)-6-AMINO-2-(3-BIPHENYL-4-YL-UREIDO)-HEXANOIC ACID (4-CYCLOHEXYL-PHENYL)-AMIDE] had an IC50 below 10 µM. The half-maximal effective concentration (EC50) in assay [2] (setting [4]) is above 2 µM. For the same compound, in assay [2], the “Selectivity Index (CC50/EC50)” value is reported as below 20.

The record behind these values is patent US20070021434A1, “NON-NUCLEOSIDE ANTI-HEPACIVIRUS AGENTS AND USES THEREOF” (Migenix Inc., priority 2005, published 2007).
